Experiment: In vitro release of hydrocortisone (modified USP dissolution apparatus)
Assay type: physicochemical
Details: after the first two hours
Protocol: The radioactively labelled hydrocortisone was entrapped in two steps using a 5% ethanolic solution at each step. Release of entrapped hydrocortisone at pH 7.5 was measured using a modified USP dissolution apparatus with a basket of 5 µm mesh and a stirring speed of 150 rpm. Sixty percent of the entrapped hydrocortisone was released in the first two hours with a further 15% released over the next six hours. The dissolution rate of free radioactively labelled hydrocortisone was also measured.

For `C[C@]12CCC(=O)C=C1CC[C@@H]1[C@@H]2[C@@H](O)C[C@@]2(C)[C@H]1CC[C@]2(O)C(=O)CO` [free hydrocortisone, hydrocortisone], the total dissolution was “total dissolution occurred in another six hours”.
